Measured values as given in patent EP3495372B1 (priority 2017, dated 2019).
Like-named read-outs stand apart in the source and are kept apart here. Marks after values point to notes of the source that are not given here.

Tests used:
[1] = tested on: differentiated SH-SY5Y cells; assay: Apoptosis detection by Hoechst 33258 staining; format: cell-based, human; conditions: 25 and 50 µM co-treatment, 20 µM Aβ1-42, 24 h
Experimental: Apoptosis detection by Hoechst 33258 staining: Hoechst 33258 staining was used to detect apoptotic nuclei. […] Then, cells fixed with 4% paraformaldehyde in phosphate buffered saline at 4 °C for 30 min. After washing cells with PBS, the nuclear DNAs were incubated with […] Hoechst 33258 fluorescent dye for 5 min at room temperature. Cells were observed and photographed under a fluorescence microscopy (Leica® DM IL LED).

[2] = tested on: cultured human lymphocytes; assay: SCE assay (genotoxicity); format: cell-based
Experimental: (§1) All volunteers have signed informed consent.
SCE assay: to provide successive visualization of SCEs, 5-bromo-2-deoxyuridine was added at culture cells. Exactly 70 h and 30 min after beginning of the incubations, demecolcine ([…]) was added to the cultures. After hypotonic treatment (0.075 M KCl), followed by three repetitive cycles of fixation in methanol/acetic acid solution (3:1, v/v), centrifugation and re-suspension, the cell suspension was dropped onto chilled, grease-free microscopic slides, air-dried, aged for three days, and then differentially stained for the inspection of the SCE rate according to the fluorescence plus Giemsa (FPG) procedure. For each treatment condition, well-spread twenty-five second division metaphases containing 42-46 chromosomes per cell were scored and the values obtained were calculated as SCEs per cell.
The frequencies of sister chromatid exchanges (SCEs) with increasing BLA concentrations were investigated in cultured human lymphocytes.

[3] = tested on: platelet aggregation induced by ADP; assay: Optical aggregometry in platelet-rich plasma, aggregation induced by ADP; format: cell-based, human; conditions: ADP (20 µM)
Experimental: (§2) Blood Collection and Preparation of Platelet-Rich Plasma: blood was collected from healthy and non-smoking volunteers (all volunteers have signed informed consent) into a polypropylene tube containing 0.105 M buffered sodium citrate. None of the donors had received any medication known to affect platelet function for at least 10 days before blood collection. Platelet-rich plasma (PRP) was collected by the centrifugation of whole blood at 150 g for 15 min at room temperature. Subsequently, platelet-poor plasma (PPP) was collected by the centrifugation at 2000 g for 20 min at room temperature. The platelet count was adjusted to 2x10^8 cells /ml with PPP.
(§3) Incubation of PRP with BLA and LA: PRP was incubated with BLA and LA (25, 50, and 100 µM) for 15 minutes at 37 °C. PRP without any compound was used as a control.
(§4) Optical Aggregometry in Platelet-Rich Plasma: the measurement of platelet aggregation in PRP was performed using four-channel aggregometer (APACT 4004; LABiTec, Ahrensburg, Germany). After the incubation of PRP with three different compounds, platelet aggregation was stimulated by ADP (20 µM) and Collagen (10 µg/mL) and percentage of aggregation was monitored for 10 minutes. The percentage of aggregation, slope and shape change parameters were monitored for 10 minutes. Assay was started 1 hour after blood was collected and finished within 3 hours (Hao HZ, He AD, Wang DC, Yin Z, Zhou YJ, Liu G, Liang ML, Da XW, Yao GQ, Xie W, Xiang JZ, Ming ZY. Antiplatelet activity of loureirin A by attenuating Akt phosphorylation: In vitro studies. Eur. J. Pharmacol. 2015; 746:63-9).

[4] = tested on: platelet aggregation induced by collagen; assay: Optical aggregometry in platelet-rich plasma, aggregation induced by collagen; format: cell-based, human; conditions: Collagen (10 µg/mL)
Experimental: as §2, §3, §4

[5] = tested on: differentiated SH-SY5Y cells; assay: TAC and TOS analysis in cellular model of Alzheimer's disease; format: cell-based, human; conditions: co-treatment with Aβ1-42
Experimental: TAC and TOS analysis: the automated TAC and TOS assays were carried out by commercially available kits (Rel Assay^(R) Diagnostics, Gaziantep, Turkey) on samples from the cultures.
Control cells (n = 6) were cultured under normal conditions. 1% Triton X, ascorbic acid (10 µM) and hydrogen peroxide (H2O2, 25 µM) were used as positive controls for cell viability, TAC and TOS analysis, respectively.
Figure 5 and 6 show the effects of BLA and MEM treatments on TAC and TOS levels in cellular model of Alzheimer's disease, respectively.

human neuron-like cells = assay: Apoptosis-Necrosis assay (Annexin V-FITC/PI flow cytometry); format: cell-based; conditions: concentration not given
Experimental: Apoptosis-Necrosis assay: the frequencies of viable, apoptotic and necrotic cells were detected with the Annexin V-FITC apoptosis detection Kit I (BD Pharmingen, USA). Briefly, 5 x 10^4 cells were collected by centrifugation and cells resuspended in 500 µL of 1X binding buffer. Then, 5 µL of Annexin V-FITC and 5 µl of propidium iodide (PI 50 µg/ml) were added to the cultures and incubated 5 min in the dark. After that, cells fixed with 4% paraformaldehyde in phosphate buffered saline at 4 °C for 30 min. Cells from each well were stained according to the manufacturer's instructions and analyzed using a flow cytometer (CyFlow Cube 6, Partec, Germany). A computer system was used for data acquisition and analysis. Four different populations of cells are detected with the Annexin V-FITC kit: viable cells that are annexin negative and PI negative and express no fluorescence, early apoptotic cells that are annexin positive and PI negative and that express green fluorescence, late apoptotic/necrotic cells that are annexin positive and PI positive and that express green and orange fluorescence, necrotic cells that are annexin negative and PI positive and that express orange fluorescence (Majstorovic I, Vucevic D, Pavlovic B, Vasilijic S, Colic M. An anti-DEC-205 monoclonal antibody stimulates binding of thymocytes to rat thymic dendritic cells and promotes apoptosis of thymocytes. Cent Eur J Immunol. 2014; 39:411-418) .
BLA was considered as more able to protect the human neuron-like cells from Aβ1-42-induced necrosis and late apoptosis than LA or MEM.

[6] = tested on: cultured human blood cells; assay: Nucleic acid oxidation, 8-hydroxy-2'-deoxyguanosine assay; format: cell-based
Excerpt: as §1
Nucleic acid oxidation: 8-hydroxy-2'-deoxyguanosine assay kits (Cayman Chemical®) was used for determining 8- OH-dG levels in the cultures. It is a competitive assay that can be used for the quantification of 8-OHdG in homogenates and recognizes both free 8-OHdG and DNA-incorporated 8-OH-dG. This assay depends on the competition between 8-OH-dG and 8-OH-dGacetylcholinesterase (AChE) conjugate for a limited amount of 8-OH-dG monoclonal antibody (Abdel-Wahab BA, Metwally ME. Ginkgo biloba enhances the anticonvulsant and neuroprotective effects of sodium valproate against kainic acid-induced seizures in mice. J Pharmacol Toxicol. 2011; 6:679-690). All procedures were carried out in accordance with the provider's manual.
The levels of 8-OH-dG, a sensitive marker of oxidative DNA damage, were quantified about mitomycin (MMC) treatment. […] On the contrary, 8-OH-dG levels were not increased in the blood cells that were treated with BLA, MEM, and LA concentrations.

Structure (SMILES) | nuclear integrity and apoptosis by Aβ1-42 (Hoechst 33258) [1] | Max. Aggregation (%) ([3]; 25 µM) | Shape change (%) ([3]; 25 µM) | Slope (%) ([3]; 25 µM) | Max. Aggregation (%) ([3]; 50 µM) | Shape change (%) ([3]; 50 µM) | Slope (%) ([3]; 50 µM) | Max. Aggregation (%) ([3]; 100 µM) | Shape change (%) ([3]; 100 µM) | Slope (%) ([3]; 100 µM) | Max. Aggregation (%) ([4]; 25 µM) | Shape change (%) ([4]; 25 µM) | Slope (%) ([4]; 25 µM) | Max. Aggregation (%) ([4]; 50 µM) | Shape change (%) ([4]; 50 µM) | Slope (%) ([4]; 50 µM) | Max. Aggregation (%) ([4]; 100 µM) | Shape change (%) ([4]; 100 µM) | Slope (%) ([4]; 100 µM) | Aβ1-42-induced decreases of TAC and increases of TOS levels [5] | other results
CC1(C)C2CC3OB(CNC(=O)CCCC[C@H]4CCSS4)O[C@]3(C)C1C2 (stereo partly drawn) [BLA, 5-((S)-1,2-dithiolan-3-yl)-N-(((3aR)-3a,5,5-trimethylhexahydro-4,6-methanobenzo[d][1,3,2]dioxaborol-2-yl)methyl)pentanamide] | protected nuclear integrity and inhibited apoptosis | 49,8* % | 12.1* % | 66.7* % | 41.3* % | 10.3* % | 51.5* % | 32.2* % | 6.8* % | 47.3* % | 45.7* % | 24.7* % | 41.4* % | 31.8* % | 10.2* % | 30.8* % | 7.9* % | 5.6* % | 25.5* % | modulated | frequencies of sister chromatid exchanges (SCEs) ([2]; versus control group, P > 0.05): not significant differences; decreased the necrotic cell percentage by Aβ1-42 (human neuron-like cells): 68.38%; 8-OH-dG levels [6]: not increased
O=C(O)CCCCC1CCSS1 (stereo not shown) [LA, 1,2-dithiolane-3-pentanoic acid] | protected nuclear integrity and inhibited apoptosis | 55.8* % | 17.4* % | 69.8* % | 47.8* % | 14.5* % | 61.4* % | 44.6* % | 13.8* % | 58.0* % | 47.9* % | 27.9* % | 43.6* % | 41.6* % | 23.4* % | 37.2* % | 35.8* % | 20.8* % | 31,4* % | modulated | frequencies of sister chromatid exchanges (SCEs) [2]: not higher than the control group; decreased the necrotic cell percentage by Aβ1-42 (human neuron-like cells): 61.67%; 8-OH-dG levels [6]: not increased
